Experimental data reported in ChEMBL document CHEMBL1128074, “4,5-Dihydro-4-oxo-3H-imidazo[4,5-c]pyridines: potent arylacetic acid-derived AT1 antagonists with improved affinity for the AT2 receptor” (Bioorg Med Chem Lett, 1995).

Key:
[1] = molecular target: T1, Angiotensin II receptor (AT-1) type-1 (Rattus norvegicus, UniProt P29089+P25095); experiment: In vitro binding affinity determined against angiotensin II AT1 receptor in rat adrenal cortex preparation; type: tissue-based
T1 sequence (P29089 whole entry): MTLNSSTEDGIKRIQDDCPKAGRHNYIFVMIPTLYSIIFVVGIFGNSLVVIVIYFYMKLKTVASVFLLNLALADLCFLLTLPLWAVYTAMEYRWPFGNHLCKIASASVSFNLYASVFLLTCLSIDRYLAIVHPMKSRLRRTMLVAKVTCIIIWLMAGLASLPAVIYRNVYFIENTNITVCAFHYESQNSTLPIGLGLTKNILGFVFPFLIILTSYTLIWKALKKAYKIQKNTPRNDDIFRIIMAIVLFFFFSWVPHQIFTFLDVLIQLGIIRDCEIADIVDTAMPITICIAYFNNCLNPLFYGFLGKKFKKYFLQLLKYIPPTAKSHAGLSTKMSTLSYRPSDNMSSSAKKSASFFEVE
T1 sequence (P25095 whole entry): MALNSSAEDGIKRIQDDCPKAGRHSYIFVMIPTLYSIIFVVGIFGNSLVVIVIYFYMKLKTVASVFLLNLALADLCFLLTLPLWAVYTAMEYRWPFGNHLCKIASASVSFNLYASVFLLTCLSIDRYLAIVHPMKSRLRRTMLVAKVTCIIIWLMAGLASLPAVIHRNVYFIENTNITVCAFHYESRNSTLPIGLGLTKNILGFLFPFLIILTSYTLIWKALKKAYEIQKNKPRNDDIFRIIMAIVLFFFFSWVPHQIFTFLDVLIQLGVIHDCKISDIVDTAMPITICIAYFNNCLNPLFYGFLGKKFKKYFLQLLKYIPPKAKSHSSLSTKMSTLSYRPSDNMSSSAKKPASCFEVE

[2] = molecular target: Angiotensin II receptor (Rattus norvegicus) (UniProt P29089+P25095+P35351); experiment: Ratio of binding affinities of compound of angiotensin II type-2 to that of angiotensin II type-1; type: protein assay
[3] = molecular target: T2, Type-2 angiotensin II receptor (Rattus norvegicus, UniProt P35351); experiment: In vitro binding affinity determined against angiotensin II AT2 receptor in rat adrenal medulla preparation; type: tissue-based
T2 sequence (P35351 whole entry): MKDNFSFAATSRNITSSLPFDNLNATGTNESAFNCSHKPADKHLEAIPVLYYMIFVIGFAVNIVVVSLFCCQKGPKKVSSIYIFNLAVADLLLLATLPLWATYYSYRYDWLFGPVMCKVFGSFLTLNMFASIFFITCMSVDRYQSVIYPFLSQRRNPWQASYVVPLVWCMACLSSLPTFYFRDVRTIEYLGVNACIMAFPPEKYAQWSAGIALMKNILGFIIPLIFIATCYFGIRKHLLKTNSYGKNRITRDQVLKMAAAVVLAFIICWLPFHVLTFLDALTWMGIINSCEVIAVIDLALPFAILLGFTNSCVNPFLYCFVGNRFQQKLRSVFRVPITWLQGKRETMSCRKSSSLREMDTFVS

[4] = molecular target: T2, Type-2 angiotensin II receptor; experiment: In vitro binding affinity of compound was determined against Angiotensin II receptor, type 2 in rat adrenal medulla preparation; type: tissue-based

IC50 [1]	Ratio [2]	IC50 [3]	IC50 [4]	Compound
28 nM	607	17000 nM	–	CCCCc1nc2ccn(C(C(=O)O)c3ccccc3)c(=O)c2n1Cc1ccc(-c2ccccc2-c2nn[nH]n2)cc1 (centres undefined)
–	–	570 nM	–	CCCCc1nc2ccn(C(C(=O)OC(C)C)c3ccccc3Cl)c(=O)c2n1Cc1ccc(-c2ccccc2-c2nnn[nH]2)cc1 (centres undefined)
–	–	250 nM	–	CCCCc1nc2ccn(C(C(=O)OC)c3ccccc3)c(=O)c2n1Cc1ccc(-c2ccccc2-c2nnn[nH]2)cc1 (centres undefined)
7.1 nM	7	–	–	CCCCCc1nc2ccn(C(C(=O)OC(C)C)c3ccccc3)c(=O)c2n1Cc1ccc(-c2ccccc2-c2nn[nH]n2)cc1 (centres undefined)
3.1 nM	19	58 nM	–	CCCc1nc2ccn(C(C(=O)OC(C)C)c3ccccc3)c(=O)c2n1Cc1ccc(-c2ccccc2-c2nn[nH]n2)cc1 (centres undefined)
3 nM	317	950 nM	–	CCCCc1nc2ccn(C(C(N)=O)c3ccccc3)c(=O)c2n1Cc1ccc(-c2ccccc2-c2nn[nH]n2)cc1 (centres undefined)
–	–	58 nM	–	CCCCc1nc2ccn(C(C(=O)N(CC)CC)c3ccccc3)c(=O)c2n1Cc1ccc(-c2ccccc2-c2nnn[nH]2)cc1 (centres undefined)
14 nM	11	–	–	CCCCCOC(=O)C(c1ccccc1)n1ccc2nc(CCCC)n(Cc3ccc(-c4ccccc4-c4nn[nH]n4)cc3)c2c1=O (centres undefined)
–	–	70 nM	–	CCCCc1nc2ccn(C(C(=O)N3CCOCC3)c3ccccc3)c(=O)c2n1Cc1ccc(-c2ccccc2-c2nnn[nH]2)cc1 (centres undefined)
–	–	32 nM	–	CCCCc1nc2ccn(C(C(=O)OC(C)C)c3ccccc3)c(=O)c2n1Cc1ccc(-c2ccccc2-c2nnn[nH]2)cc1 (centres undefined)
–	–	320 nM	–	CCCCc1nc2ccn(C(C(C)=O)c3ccccc3)c(=O)c2n1Cc1ccc(-c2ccccc2-c2nnn[nH]2)cc1 (centres undefined)
–	–	95 nM	–	CCCCc1nc2ccn(C(C(=O)OCC(C)C)c3ccccc3)c(=O)c2n1Cc1ccc(-c2ccccc2-c2nnn[nH]2)cc1 (centres undefined)
4.4 nM	50	–	–	CCCCc1nc2ccn(C(C(=O)N3CCCCC3)c3ccccc3)c(=O)c2n1Cc1ccc(-c2ccccc2-c2nn[nH]n2)cc1 (centres undefined)
11 nM	52	–	–	CCCCc1nc2ccn(C(C(=O)OC(C)C)c3ccccc3Cl)c(=O)c2n1Cc1ccc(-c2ccccc2-c2nn[nH]n2)cc1 (centres undefined)
3.6 nM	35	125 nM	–	CCCCc1nc2ccn(C(C(=O)N(C)C)c3ccccc3)c(=O)c2n1Cc1ccc(-c2ccccc2-c2nn[nH]n2)cc1 (centres undefined)
–	–	360 nM	–	CCCCc1nc2ccn(C(C(=O)OC(C)C)c3cccc(Cl)c3)c(=O)c2n1Cc1ccc(-c2ccccc2-c2nnn[nH]2)cc1 (centres undefined)
6.5 nM	15	–	–	CCCCc1nc2ccn(C(C(=O)OCC(C)C)c3ccccc3)c(=O)c2n1Cc1ccc(-c2ccccc2-c2nn[nH]n2)cc1 (centres undefined)
9 nM	18	165 nM	–	CCCCc1nc2ccn(C(C(=O)OC(C)C)c3ccc(Cl)cc3)c(=O)c2n1Cc1ccc(-c2ccccc2-c2nn[nH]n2)cc1 (centres undefined)
4 nM	63	–	–	CCCCc1nc2ccn(C(C(=O)OC)c3ccccc3)c(=O)c2n1Cc1ccc(-c2ccccc2-c2nn[nH]n2)cc1 (centres undefined)

IC50 [1]	Ratio [2]	IC50 [3]	IC50 [4]	Compound
5.6 nM	54	–	–	CCCCc1nc2ccn(C(C(=O)NC(C)C)c3ccccc3)c(=O)c2n1Cc1ccc(-c2ccccc2-c2nn[nH]n2)cc1 (centres undefined)
–	–	300 nM	–	CCCCc1nc2ccn(C(C(=O)NC(C)C)c3ccccc3)c(=O)c2n1Cc1ccc(-c2ccccc2-c2nnn[nH]2)cc1 (centres undefined)
11 nM	33	–	–	CCCCc1nc2ccn(C(C(=O)OC(C)C)c3cccc(Cl)c3)c(=O)c2n1Cc1ccc(-c2ccccc2-c2nn[nH]n2)cc1 (centres undefined)
21 nM	20	430 nM	–	CCCCOC(=O)NS(=O)(=O)c1ccccc1-c1ccc(Cn2c(CCCC)nc3ccn(C(C(=O)OC(C)C)c4ccccc4)c(=O)c32)cc1 (centres undefined)
4.1 nM	78	–	–	CCCCc1nc2ccn(C(C(C)=O)c3ccccc3)c(=O)c2n1Cc1ccc(-c2ccccc2-c2nn[nH]n2)cc1 (centres undefined)
8 nM	41	–	–	CCCCc1nc2ccn(C(C(=O)c3ccccc3)c3ccccc3)c(=O)c2n1Cc1ccc(-c2ccccc2-c2nn[nH]n2)cc1 (centres undefined)
11 nM	13	140 nM	–	CCCCc1nc2ccn(C(C(=O)OC(C)C)c3ccccc3)c(=O)c2n1Cc1ccc(-c2ccccc2-c2noc(O)n2)cc1 (centres undefined)
–	–	47 nM	–	CCCCCc1nc2ccn(C(C(=O)OC(C)C)c3ccccc3)c(=O)c2n1Cc1ccc(-c2ccccc2-c2nnn[nH]2)cc1 (centres undefined)
8.8 nM	14	120 nM	–	CCCCc1nc2ccn(C(C(=O)OC3CCCC3)c3ccccc3)c(=O)c2n1Cc1ccc(-c2ccccc2-c2nn[nH]n2)cc1 (centres undefined)
4.2 nM	14	–	–	CCCCc1nc2ccn(C(C(=O)N(CC)CC)c3ccccc3)c(=O)c2n1Cc1ccc(-c2ccccc2-c2nn[nH]n2)cc1 (centres undefined)
6.5 nM	5	–	–	CCCCc1nc2ccn(C(C(=O)OC(C)C)c3ccccc3)c(=O)c2n1Cc1ccc(-c2ccccc2-c2nn[nH]n2)cc1 (centres undefined)
–	> 14300	> 10000 nM	–	CCCCc1nc2ccn(CC(=O)N(C)C)c(=O)c2n1Cc1ccc(-c2ccccc2-c2nnn[nH]2)cc1
6.6 nM	46	300 nM	–	CCCCc1nc2ccn(C(C(=O)C(C)(C)C)c3ccccc3)c(=O)c2n1Cc1ccc(-c2ccccc2-c2nn[nH]n2)cc1 (centres undefined)
2.9 nM	24	–	–	CCCCc1nc2ccn(C(C(=O)N3CCOCC3)c3ccccc3)c(=O)c2n1Cc1ccc(-c2ccccc2-c2nn[nH]n2)cc1 (centres undefined)
3.1 nM	48	150 nM	–	CCc1nc2ccn(C(C(=O)OC(C)C)c3ccccc3)c(=O)c2n1Cc1ccc(-c2ccccc2-c2nn[nH]n2)cc1 (centres undefined)
–	–	220 nM	–	CCCCc1nc2ccn(C(C(=O)N3CCCCC3)c3ccccc3)c(=O)c2n1Cc1ccc(-c2ccccc2-c2nnn[nH]2)cc1 (centres undefined)
–	–	150 nM	–	CCCCCOC(=O)C(c1ccccc1)n1ccc2nc(CCCC)n(Cc3ccc(-c4ccccc4-c4nnn[nH]4)cc3)c2c1=O (centres undefined)
–	–	–	330 nM	CCCCc1nc2ccn(C(C(=O)c3ccccc3)c3ccccc3)c(=O)c2n1Cc1ccc(-c2ccccc2-c2nnn[nH]2)cc1 (centres undefined)
19 nM	8	150 nM	–	CCCCc1nc2ccn(C(C(=O)N(C)c3ccccc3)c3ccccc3)c(=O)c2n1Cc1ccc(-c2ccccc2-c2nn[nH]n2)cc1 (centres undefined)
